Source: paper PMC11436758, “Computer-aided drug design to generate a unique antibiotic family” (Nature Communications, 2024)
≈ marks a conversion by molar mass, not a printed value. Where “and” joins values, the source holds several entries; their conditions need not be identical. Equal entries are not always repeated. Entries after “also recorded” stand apart in the source; their conditions may differ.

Legend:
S. aureus (MRSA) = assay: MIC, clinical and laboratory strains; format: cell-based
Protocol: (§1) The medium employed for the assay was Mueller Hinton II Broth (MHB II; Becton-Dickinson, Sparks, MD, USA). Agar plates used for the organisms were trypticase soy agar plus 5% sheep blood (BD; Sparks, MD, USA). MIC assay plates were prepared using the CLSI broth microdilution procedure. Automated liquid handlers (Multidrop 384, Biomek 2000 and Biomek FX) were used to conduct serial dilutions and liquid transfers. A standardized inoculum of each organism was prepared per CLSI methods. Suspensions were prepared to equal a 0.5 McFarland standard, followed by a 1:20 dilution in test media. The inocula were dispensed into sterile reservoirs divided by length (Beckman Colter) and the Biomek 2000 was used to inoculate the plates. Daughter plates were placed on the Biomek 2000 work surface in reverse orientation so that inoculation took place from low to high drug concentration. The Biomek 2000 delivered 10 μL of the diluted suspension into each well. These inoculations yielded a final cell concentration in the daughter plates of ~5 × 10^5 colony-forming units/mL in each well. The wells of the daughter plates ultimately contained 185 μL of broth, 5 μL of drug solution, and 10 μL of bacterial inoculum. Plates were covered with a sterile lid on the top plate, placed in plastic bags, and incubated at 35 °C for ~18 h. The microplates were viewed from the bottom using a plate viewer and the MIC was read. The MIC was recorded as the lowest concentration of drug that inhibited visible growth of the organism.

S. aureus (MSSA) = assay: MIC, clinical and laboratory strains; format: cell-based
Protocol: as §1

S. aureus (VISA) = assay: MIC, clinical and laboratory strains; format: cell-based
Protocol: as §1

[1] = test system: 102 ATCC strains and clinical isolates of Staphylococcus, Streptomyces, and Enterococcus; assay: MIC panel summary over all strains; format: cell-based; details: of 102 strains
Protocol: We also sought to determine if DNM0547 was bacteriostatic or bactericidal. Time kill experiments were carried out using increasing doses of DNM0547 against two different strains of MRSA.
as §1

MRSA (ATCC 33591) = assay: Rabbit ischemic ear wound model of infection by MRSA, topical treatment; format: in vivo, New Zealand White rabbits; details: for % wound closure / wound size (mean) / Wound size (mm2): Fig 2c
Protocol: New Zealand White rabbits from Charles River were employed for this study. Both male and female rabbits were used; sample size prevented disaggregation of data by sex. Investigators were blinded to group allocation, data collection, and data analysis. Food and water were given ad libidum and animals were acclimatized for 7 days with photoperiods of alternating 12 h light and dark at 21 °C in relative humidity of 40–50%. The formulation for delivery of DNM compounds was Glaxal base (WellSpring Pharmaceutical Canada Corp., Oakville, Canada). Formulation was performed by dissolving compound in Glaxal base to give final concentrations of 1% or 2% DNM compound (w/v). The analgesic (Buprenex 0.02 mg/kg sc) and anesthesia (isoflurane (0.5–5% with oxygen carrier 0.5–2 L/min) were used as required during procedures. An ischemia wound healing model was conducted surgically. Each wound was inoculated with 50 μl of 2 × 10^7 CFU/mL MRSA (ATCC #33591) and dressed. After 1 day, wounds were treated with either 50 μl control cream containing vehicle or 50 μl cream containing compound daily. Wounds were assessed and observations recorded using the Draize scoring system. Digital photographs of each wound were obtained and documented.

[2] = Histopathology (H&E) of treated rabbit ischemic ear wounds, dermal toxicity; details: Suppl Fig 7, score per wound
Protocol: Wounds were excised, fixed, and routine H&E staining was performed. Wounds were examined for pathology and scored in a blinded manner.
Post-wounding, under anesthesia, animals were euthanized with an intravenous injection of Beuthanasia-D at a dosage of 150 mg/kg of body weight. Specimens including the entire wound, along with ~2–3 mm of the normal unwounded skin margins were harvested. Each ear wound specimen was sectioned into halves. For one half of the wound, the wound was placed into a container with 10% neutral buffered formalin and processed for routine histological evaluation. Wounds were scored on a scale of 0–4 at the wound site for erythema, edema, inflammation, granulation, angiogenesis, and epithelialization. Wounds were characterized in a blinded manner by a board-certified member of the College of American Pathologists.

MIC (S. aureus (MRSA); S. aureus (MRSA) 2167): 0.12 µg/mL (≈ 0.24 µM) | MIC (S. aureus (MRSA); S. aureus (MRSA) 2168): 0.25 µg/mL (≈ 0.499 µM) | MIC (S. aureus (MRSA); S. aureus (MRSA) 2169): 0.25 µg/mL (≈ 0.499 µM) | MIC (S. aureus (MRSA); S. aureus (MRSA) 2170): 0.25 µg/mL (≈ 0.499 µM) | MIC (S. aureus (MRSA); S. aureus (MRSA) 2171): 0.25 µg/mL (≈ 0.499 µM) | MIC (S. aureus (MRSA); S. aureus (MRSA) 2293): 0.25 µg/mL (≈ 0.499 µM) | MIC (S. aureus (MRSA); S. aureus (MRSA) 2294): 0.25 µg/mL (≈ 0.499 µM) | MIC (S. aureus (MRSA); S. aureus (MRSA) 2295): 0.25 µg/mL (≈ 0.499 µM) | MIC (S. aureus (MRSA); S. aureus (MRSA) 2296): 0.25 µg/mL (≈ 0.499 µM) | MIC (S. aureus (MRSA); S. aureus (MRSA) 2297): 0.25 µg/mL (≈ 0.499 µM) | MIC (S. aureus (MRSA); S. aureus (MRSA) 3880): > 16 µg/mL | MIC (S. aureus (MRSA); S. aureus (MRSA) 5373): 1 µg/mL (≈ 2 µM) | MIC (S. aureus (MRSA); S. aureus (MRSA) 5666): 1 µg/mL (≈ 2 µM) | MIC (S. aureus (MRSA); S. aureus (MRSA) 5702): 1 µg/mL (≈ 2 µM) | MIC (S. aureus (MRSA); S. aureus (MRSA) 5999): 1 µg/mL (≈ 2 µM) | MIC (S. aureus (MRSA); S. aureus (MRSA) 6165): 1 µg/mL (≈ 2 µM) | MIC (S. aureus (MRSA); S. aureus (MRSA) 6169): 0.5 µg/mL (≈ 0.999 µM) | MIC (S. aureus (MRSA); S. aureus (MRSA) 6174): 1 µg/mL (≈ 2 µM) | MIC (S. aureus (MRSA); S. aureus (MRSA) 6311): 1 µg/mL (≈ 2 µM) | MIC (S. aureus (MRSA); S. aureus (MRSA) 6312): 1 µg/mL (≈ 2 µM) | MIC (S. aureus (MRSA); S. aureus (MRSA) 6313): 1 µg/mL (≈ 2 µM) | MIC (S. aureus (MRSA); S. aureus (MRSA) 6315): 1 µg/mL (≈ 2 µM) | MIC (S. aureus (MRSA); S. aureus (MRSA) 6320): 1 µg/mL (≈ 2 µM) | MIC (S. aureus (MRSA); S. aureus (MRSA) 6498): 1 µg/mL (≈ 2 µM) | MIC (S. aureus (MRSA); S. aureus (MRSA) 6501): 1 µg/mL (≈ 2 µM) | MIC (S. aureus (MRSA); S. aureus (MRSA) 6505): 1 µg/mL (≈ 2 µM) | MIC (S. aureus (MRSA); S. aureus (MRSA) 6506): 1 µg/mL (≈ 2 µM) | MIC (S. aureus (MRSA); S. aureus (MRSA) NRS382/2119): 1 µg/mL (≈ 2 µM) | MIC (S. aureus (MRSA); S. aureus (MRSA) NRS383/2120): > 16 µg/mL | MIC (S. aureus (MRSA); S. aureus (MRSA) NRS384/2011): 1 µg/mL (≈ 2 µM) | MIC (S. aureus (MSSA); S. aureus (MSSA) 2127): > 16 µg/mL | MIC (S. aureus (MSSA); S. aureus (MSSA) 6167): 1 µg/mL (≈ 2 µM) | MIC (S. aureus (MSSA); S. aureus (MSSA) 6168): 2 µg/mL (≈ 3.99 µM) | MIC (S. aureus (MSSA); S. aureus (MSSA) 6170): 2 µg/mL (≈ 3.99 µM) | MIC (S. aureus (MSSA); S. aureus (MSSA) 6316): 2 µg/mL (≈ 3.99 µM) | MIC (S. aureus (MSSA); S. aureus (MSSA) 6317): 1 µg/mL (≈ 2 µM) | MIC (S. aureus (MSSA); S. aureus (MSSA) 6318): 2 µg/mL (≈ 3.99 µM) | MIC (S. aureus (MSSA); S. aureus (MSSA) 6499): 1 µg/mL (≈ 2 µM) | MIC (S. aureus (MSSA); S. aureus (MSSA) 6500): 1 µg/mL (≈ 2 µM) | MIC (S. aureus (MSSA); S. aureus (MSSA) 6502): 1 µg/mL (≈ 2 µM) | MIC (S. aureus (VISA); S. aureus (VISA) 1724): 0.25 µg/mL (≈ 0.499 µM) | MIC (S. aureus (VISA); S. aureus (VISA) 2012): 1 µg/mL (≈ 2 µM) | MIC (S. aureus (VISA); S. aureus (VISA) 2013): 0.25 µg/mL (≈ 0.499 µM) | MIC (S. aureus (VISA); S. aureus (VISA) 2014): 0.5 µg/mL (≈ 0.999 µM) | MIC (S. aureus (VISA); S. aureus (VISA) 2015): 0.06 µg/mL (≈ 0.12 µM) | MIC (S. aureus (VISA); S. aureus (VISA) 2016): 0.25 µg/mL (≈ 0.499 µM) | MIC (S. aureus (VISA); S. aureus (VISA) 2017): 0.5 µg/mL (≈ 0.999 µM) | MIC (S. aureus (VISA); S. aureus (VISA) 2018): 0.12 µg/mL (≈ 0.24 µM) | MIC (S. aureus (VISA); S. aureus (VISA) 2019): 4 µg/mL (≈ 7.99 µM) | MIC (S. aureus (VISA); S. aureus (VISA) 2123): 0.25 µg/mL (≈ 0.499 µM) | MIC (S. aureus (VISA); S. aureus (VISA) NRS1/1723): 0.25 µg/mL (≈ 0.499 µM) | number of strains tested with MIC not ≤ 2 μg/mL [1]: 26
SMILES: C/C(=C\C(=O)OCCCCCCCCC(=O)O)C[C@@H]1OC[C@H](C[C@@H]2O[C@H]2[C@@H](C)[C@H](C)O)[C@@H](O)[C@H]1O [mupirocin]
CFUs (MRSA (ATCC 33591); Fig 2b, individual wounds): 0 CFUs (6×) and 4120 CFUs | % wound closure (MRSA (ATCC 33591); Day 1): 0% | wound size (mean) (MRSA (ATCC 33591); Day 1): 34.3 mm2 | % wound closure (MRSA (ATCC 33591); Day 3): 3.64% | wound size (mean) (MRSA (ATCC 33591); Day 3): 33.056 mm2 | wound size (mean) (MRSA (ATCC 33591); Day 5): 31.872 mm2 | % wound closure (MRSA (ATCC 33591); Day 7): 10.3% | wound size (mean) (MRSA (ATCC 33591); Day 7): 30.776 mm2 | % wound closure (MRSA (ATCC 33591); Day 10): 22.68% | wound size (mean) (MRSA (ATCC 33591); Day 10): 26.526 mm2 | % wound closure (MRSA (ATCC 33591); Day 14): 43.29% | wound size (mean) (MRSA (ATCC 33591); Day 14): 19.45 mm2 | % wound closure (MRSA (ATCC 33591); Day 18): 53.8% | wound size (mean) (MRSA (ATCC 33591); Day 18): 15.838 mm2 | Wound size (mm2) (MRSA (ATCC 33591); individual wounds, Day 1): 36.53 mm2 and 30.25 mm2 and 32.45 mm2 and 37.03 mm2 and 35.24 mm2 | Wound size (mm2) (MRSA (ATCC 33591); individual wounds, Day 3): 33.98 mm2 and 27.23 mm2 and 29.57 mm2 and 36.33 mm2 and 38.17 mm2 | Wound size (mm2) (MRSA (ATCC 33591); individual wounds, Day 5): 33.31 mm2 and 25.96 mm2 and 29.21 mm2 and 35.69 mm2 and 35.19 mm2 | Wound size (mm2) (MRSA (ATCC 33591); individual wounds, Day 7): 31.43 mm2 and 25.29 mm2 and 28.29 mm2 and 34.94 mm2 and 33.93 mm2 | Wound size (mm2) (MRSA (ATCC 33591); individual wounds, Day 10): 30.25 mm2 and 23.34 mm2 and 26.6 mm2 and 26.26 mm2 and 26.18 mm2 | Wound size (mm2) (MRSA (ATCC 33591); individual wounds, Day 14): 23.68 mm2 and 17.17 mm2 and 19.28 mm2 and 18.84 mm2 and 18.28 mm2 | Wound size (mm2) (MRSA (ATCC 33591); individual wounds, Day 18): 20.63 mm2 and 12.49 mm2 and 12.8 mm2 and 15.19 mm2 and 18.08 mm2 | wound healing compared with control (MRSA (ATCC 33591); topical 2%): did not alter wound healing from control; also recorded: not statistically significant | Edema [2]: 2 | Erythema [2]: 2 | Inflammation [2]: 3 and 4
